Measurements taken from publication PMC3850062 (Virology, 2013).

Target: T1, gp16 (eGFP-gp16), phi29 DNA packaging motor ATPase (Bacillus phage phi29, UniProt P11014)
T1 sequence (P11014 1-332): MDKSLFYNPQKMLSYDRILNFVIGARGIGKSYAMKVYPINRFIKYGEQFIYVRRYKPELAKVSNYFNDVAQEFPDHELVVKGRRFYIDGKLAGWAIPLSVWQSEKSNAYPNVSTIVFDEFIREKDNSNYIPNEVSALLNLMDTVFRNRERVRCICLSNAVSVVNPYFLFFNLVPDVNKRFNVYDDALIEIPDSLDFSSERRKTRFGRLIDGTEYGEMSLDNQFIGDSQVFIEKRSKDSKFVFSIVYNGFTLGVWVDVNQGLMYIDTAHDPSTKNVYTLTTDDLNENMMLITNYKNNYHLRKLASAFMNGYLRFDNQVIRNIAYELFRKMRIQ
Conditions: without and with saturating dsDNA

Nc1ncnc2c1ncn2[C@@H]1O[C@H](COP(=O)(O)OP(=O)(O)OP(=O)(O)O)[C@@H](O)[C@H]1O [ATP]
fluorescence ATPase assay: each subunit of gp16 is able to hydrolyze ATP independently
